From ChEMBL document CHEMBL1137325, “Multitarget-directed drug design strategy: a novel molecule designed to block epidermal growth factor receptor (EGFR) and to exert proapoptotic effects” (J Med Chem, 2006)
Calls of active or inactive are those of the source. No cut-off for these calls is given here.

Experiments:
A-431 [1] = test: Induction of necrosis in human A431 cells measured as increase of LDH release; type: functional, cell-based
A-431 [2] = test: Reversibility of antiproliferative activity against human A431 cells after recovery for 68 hrs by MTT assay; conditions: A-431, 68 h
[3] = target: Epidermal growth factor receptor (Homo sapiens, UniProt P00533); test: Inhibition of EGFR tyrosine kinase activity
Sequence of Epidermal growth factor receptor (P00533 whole entry, the tested form may be a part): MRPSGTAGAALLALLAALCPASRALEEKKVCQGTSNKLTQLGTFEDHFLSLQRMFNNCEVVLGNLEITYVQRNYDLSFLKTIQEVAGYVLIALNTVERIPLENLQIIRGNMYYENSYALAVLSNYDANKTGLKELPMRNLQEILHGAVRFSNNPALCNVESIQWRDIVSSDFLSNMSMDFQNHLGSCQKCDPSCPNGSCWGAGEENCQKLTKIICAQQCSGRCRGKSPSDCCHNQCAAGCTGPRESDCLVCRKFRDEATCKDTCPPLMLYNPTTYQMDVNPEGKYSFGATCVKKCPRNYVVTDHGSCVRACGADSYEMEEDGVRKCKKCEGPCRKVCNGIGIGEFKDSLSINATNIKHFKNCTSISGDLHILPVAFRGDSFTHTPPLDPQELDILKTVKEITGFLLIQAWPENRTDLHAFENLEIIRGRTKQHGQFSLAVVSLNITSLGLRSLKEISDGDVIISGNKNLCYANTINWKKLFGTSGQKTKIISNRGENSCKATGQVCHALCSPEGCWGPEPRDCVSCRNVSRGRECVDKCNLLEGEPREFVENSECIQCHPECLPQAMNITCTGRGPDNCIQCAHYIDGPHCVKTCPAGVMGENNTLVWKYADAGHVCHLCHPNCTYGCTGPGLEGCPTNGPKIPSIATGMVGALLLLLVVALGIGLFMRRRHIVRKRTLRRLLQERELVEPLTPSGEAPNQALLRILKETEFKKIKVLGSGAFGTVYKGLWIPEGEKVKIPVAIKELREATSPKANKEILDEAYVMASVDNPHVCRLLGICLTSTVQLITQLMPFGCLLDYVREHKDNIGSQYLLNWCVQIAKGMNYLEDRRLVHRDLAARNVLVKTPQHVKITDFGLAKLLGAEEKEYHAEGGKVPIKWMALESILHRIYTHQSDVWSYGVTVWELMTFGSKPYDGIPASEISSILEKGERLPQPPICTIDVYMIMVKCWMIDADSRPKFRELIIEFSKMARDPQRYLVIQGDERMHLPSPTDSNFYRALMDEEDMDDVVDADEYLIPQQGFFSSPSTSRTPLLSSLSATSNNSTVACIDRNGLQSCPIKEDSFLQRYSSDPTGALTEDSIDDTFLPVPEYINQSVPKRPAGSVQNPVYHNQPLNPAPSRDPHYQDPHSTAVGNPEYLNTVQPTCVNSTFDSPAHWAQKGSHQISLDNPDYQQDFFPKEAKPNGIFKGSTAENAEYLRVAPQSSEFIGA

A-431 [4] = test: Induction of apoptosis in human A431 cells measured as increase in DNA fragmentation; type: functional, cell-based
A-431 [5] = test: Reversibility of antiproliferative activity against human A431 cells after recovery for 68 hrs in presence of 100 uM DTT by MTT assay; conditions: A-431, 68 h
A-431 [6] = test: Reversibility of antiproliferative activity against human A431 cells after recovery for 68 hrs in presence of 50 uM DTT by MTT assay; conditions: A-431, 68 h
A-431 [7] = test: Antiproliferative activity against human A431 cells after 72 hrs by MTT assay; conditions: A-431, 72 h

Structure (SMILES)	Activity (A-431 [1])	IC50 (A-431 [2])	IC50 [3]	Activity (A-431 [4])	IC50 (A-431 [5])	IC50 (A-431 [6])	IC50 (A-431 [7])
COc1cc2ncnc(Nc3cccc(Br)c3)c2cc1OC	inactive						
C=CC(=O)Nc1ccc2ncnc(Nc3cccc(Br)c3)c2c1	inactive						
O=C(Nc1ccc2ncnc(Nc3cccc(Br)c3)c2c1)C1CCSS1 (stereo not drawn)	inactive	9.23 µM	0.06 µM	Dose-dependent effect	28.1 µM	22.4 µM	7.9 µM
O=C(CC1CCSS1)Nc1ccc2ncnc(Nc3cccc(Br)c3)c2c1 (stereo not drawn)			> 3 µM				13.7 µM
O=C(CCCCC1CCSS1)Nc1ccc2ncnc(Nc3cccc(Br)c3)c2c1 (stereo not drawn)			> 3 µM				21.6 µM
